Laboratory results reported in patent US12083125B2, “Drug-induced epigenetic remodeling to prevent fibrosis” (Thomas Jefferson University, priority 2016, dated 2024).
“Also recorded” adds a separate entry of the source. Like-named read-outs stand apart in the source and are kept apart here. One block for each compound: values may come before it.

What was measured:
[1] = evaluation of GSKJ1, GSKJ2, GSKJ4, GSKJ5: efficacy / in vitro studies; conditions: for efficacy / activity: ethyl esters of GSKJ1 and GSKJ2; for potency in in vitro studies: over a control, data not shown
Source text: (§1) To further review compounds in this class, we evaluated […]4, and GSKJ5. Based on our data, and review of the molecule, the highly polar carboxylate group of GSKJ1 and GSKJ2 restricts cellular permeability. […] Accordingly, for purposes of treating disease and disorders here, the most preferred active pharmaceutical compound is GSK-J4.

[2] = evaluation of GSKJ1, GSKJ2, GSKJ4, GSKJ5: cellular permeability / bioavailability; assay type: in vitro ADME
Source text: as §1

[3] = test system: cells from the ex vivo mock cataract surgery explants; assay: ex vivo mock cataract surgery explants: myofibroblast emergence, αSMA and Fn-EDA expression; assay type: cell-based, chick
Source text: For example, in a PCO model, using an ex vivo lens mock cataract surgery model in chick embryos that recapitulates features of PCO, we investigated the cell reprogramming events involved in regulating changes in epigenetic markings of chromatin, which result in alterations of chromatin structure and impact gene transcriptional programs to control the emergence of myofibroblasts.
We tested this epigenetic targeting strategy using a clinically relevant ex vivo chick mock cataract surgery model that recapitulates the major features of the lens fibrotic disease, PCO, as well as a human lens cells (SRA01/04). Human SRA01/04 lens cells are studied extensively for the acquisition of a mesenchymal phenotype resulting from an Epithelial Mesenchymal Transition (EMT) after exposure to TGFβ associated with the development of lens fibrosis.
(§2) FIG. 2A illustrates how the ex vivo mock cataract surgery explants are created. Ex vivo mock cataract surgery explants provide a powerful model in which to study wound healing as well as the development of fibrotic disease. Briefly, to create this model, the fiber cell mass is hydroeluted from the lens leaving behind lens epithelial cells that remain adherent to the lens capsule. The resultant ex vivo explant when placed in culture is star shaped, with the adherent cells located in the points of the star. In response to the injury induced by the surgery, mesenchymal cells involved in repair move to the wound edges.
As shown in FIG. 2B wound healing across the denuded basement membrane is typically completed by day 3. Lens epithelial cells led by a leader cell population, which expresses the surface receptor CD44+ [42], move collectively to repopulate the denuded area of the wounded lens capsule (where the differentiated lens fiber cells were removed). FIG. 2C depicts the wound area over a three-day period. In FIGS. 3A and B CD44+ leader cell population that has migrated to the outside wound edge of the explants (FIG. 3A, left panel, right arrow) directs the collective migration of lens epithelial cells onto the rigid tissue culture substrate, a region we refer to as the extracapsular zone (ECZ). […] Therefore, within one model system we can assess epigenetic targeting strategies for preventing fibrosis and determine how these approaches will affect normal wound healing. This ex vivo model was used to investigate the epigenetic mechanisms (detailed below) involved in regulating cell reprogramming to a myofibroblast phenotype associated with lens fibrotic disease.
Next, we tested if manipulating histone de-methylase activity could change chromatin structure to block pro-fibrotic transcription factors from binding to DNA and the acquisition to a myofibroblast phenotype associated with fibrosis. […] Thus, treatment with GSKJ4 prevents αSMA expression in the ex vivo mock cataract surgery model.
Cells from the ex vivo mock cataract surgery explants were treated with vehicle or GSKJ4 for 24 hr. ECZ regions were treated 1 day after injury and inhibitor was washed away after 24 hour of treatment. We chose to add the inhibitor on day 1, during the time of open chromatin, the perfect timing to prevent cell reprogramming to a fibrotic phenotype. […]
(§3) Cells from the ex vivo mock cataract surgery explant were treated for 24 hour as indicated above with vehicle or GSK-J4. […] In FIG. 13B we determined the effect of GSKJ4 short-term treatment on wound healing. […]

FHL124 human lens cells = assay: TGFβ-stimulated human lens cells, western blot for FN-EDA and Collagen I; assay type: cell-based; conditions: FHL124 cells stimulated with TGFβ, FIG. 11
Method: We also performed similar studies with human lens cell culture. FHL124 human lens cells, a non-transformed spontaneously generated human lens cell line from embryonic explants, were stimulated with Transforming Growth Factor β (TGFβ), a potent inducer of the fibrotic response, in the absence or presence of the UTX inhibitor GSKJ4. Western blotting was performed with antibodies to extracellular matrix molecules associated with fibrosis, including Fibronectin EDA (FN-EDA), a splice form of FN and Collagen I. FN EDA expression is tightly linked to myofibroblast differentiation and Collagen I is a defining feature of fibrosis/scarring. GAPDH was used as a loading control for WB analysis.

[4] = test system: ex vivo mock cataract surgery explants; assay: wound healing (open wound area) in ex vivo mock cataract surgery explants; assay type: cell-based, chick
Source text: as §2
As shown in FIG. 2B wound healing across the denuded basement membrane is typically completed by day 3. […]
We also determined whether GSKJ4 treatment affected wound healing. […] Open wound area (μm^2) was measured on Day 0 (D0) through Day 3 (D3) in the presence of vehicle control (DMSO) or GSKJ4. Open wound area was measured for each ex vivo capsule D0-D3 and presented in the graph+/− SEM. […]
as §3

[5] = testing of GSK-J4 concentration range (efficacy and toxicity)
Method: For example, when administering GSK-J4 to a patient, an appropriate therapeutic range comprises: about 1 μM to 10 μM concentration for a liquid, topical vehicle. Suitable doses can be generated based upon the tissue to be treated and area to be treated. […] The LD50 is otherwise known to those of skill in the art based upon the molecule of interest. The GSK-J4 can be formulated with suitable excipients and into a suitable vehicle for delivery to a human patient.

Compound: CCOC(=O)CCNc1cc(N2CCc3ccccc3CC2)nc(-c2cccnc2)n1 [GSKJ5]
- efficacy / activity [1]: inactive

- cellular permeability ([2]; highly polar carboxylate group): restricts
Compound: O=C(O)CCNc1cc(N2CCc3ccccc3CC2)nc(-c2cccnc2)n1 [GSKJ2]
- potency in in vitro studies [1]: potent over a control

Compound: CCOC(=O)CCNc1cc(N2CCc3ccccc3CC2)nc(-c2ccccn2)n1 [GSK-J4]
- myofibroblast emergence, short-term treatment ([3]; 24 hour treatment, FIGS. 14A and B): effective to block
- αSMA expression ([3]; cells from ex vivo mock cataract surgery explants, FIG. 10A, B): prevents
- emergence of myofibroblasts ([3]; ex vivo mock cataract surgery model, FIG. 10A): effectively suppressed
- Fn-EDA expression, short-term treatment ([3]; treated 24 hr from day 1 after injury, washed away, lysates day 3, western blot): significantly inhibited
- αSMA expression, short-term treatment ([3]; treated 24 hr from day 1 after injury, washed away, lysates day 3, western blot (αSMA to GAPDH)): significantly inhibited; also recorded: effectively blocked
- TGFβ induced expression of Collagen I (FHL124 human lens cells): blocked
- TGFβ induced expression of FN EDA (FHL124 human lens cells): blocked
- wound healing (open wound area) ([4]; Day 0 through Day 3 in presence of GSKJ4 vs DMSO, FIG. 12): somewhat slowed but did not prevent
- wound healing (open wound area), short-term treatment ([4]; treated at time of injury, day 0, for 24 hour, followed day 0 through day 4): does not affect
- bioavailability ([2]; ethyl ester masking the acid group): increased
- efficacy / activity [1]: greater efficacy
- efficacy by concentration ([5]; 10 μM versus 1 μM): higher efficacy at 10 μM than the 1 μM
- toxicity ([5]; 100 μM): began to show signs of toxicity

- cellular permeability [2]: restricts
Compound: O=C(O)CCNc1cc(N2CCc3ccccc3CC2)nc(-c2ccccn2)n1 [GSKJ1]
- potency in in vitro studies [1]: potent over a control
